The source of these data is patent EP0624588A1, “New quinoline derivatives with pharmacological activity” (J. URIACH & CIA. S.A., priority 1993, dated 1994).

Structures are written as SMILES. pIC50: −log10 of the molar value.

In assay [1] the test system is platelet aggregation induced by PAF. As to the kind of experiment: Inhibition of platelet aggregation induced by PAF. Format: cell-based, New Zealand albino rabbits. Particulars: Oryctolagus cuniculus; rabbit platelet rich plasma, PAF (C₁₈) 15 nM, Born nephelometric technique; read-out: IC₅₀. Here is the method: Blood is obtained by cardiac puncture of male New Zealand albino rabbits (b.w. 2-2.5 Kg) and coagulation is prevented by adding 1 part of 3.16% sodium citrate dihydrate in 9 parts of blood. Platelet rich plasma (PRP) is prepared by centrifuging the blood at 250xg for 10 min. at 4°C and then it is diluted with platelet poor plasma (PPP) obtained by further centrifuging at 3000xg for 10 min. The platelet count is adjusted to 3x10⁵/mm³. Platelet aggregation induced by PAF (C₁₈, prepared in our laboratory) (15 nM) is determined by the Born nephelometric technique (J. Physiol., 1962, 162, 67) using an aggregometer Chrono-log 500. The activities of the inhibitors are expressed as the IC₅₀ value, that is to say the concentration of drug needed to inhibit platelet aggregation by 50%.

Assay [2] has as its system LTB₄ production by human granulocytes (HL-60 cells). As to the kind of experiment: Inhibition of LTB4 production by human granulocytes. Format: cell-based. Particulars: differentiated HL-60 cells stimulated by calcium ionophore A23187 (5 x 10⁻⁶M), LTB₄ by EIA, read-out: % inh. of LTB₄ production (at 5 µM). Here is the method:
Human promyelocytes (HL-60 cells) are grown in a RPMI 1640 medium suplemented with 20% heat-inactivated fetal bovine serum, 50 U/mL penicillin and 50 µg/mL streptomycin under an atmosphere of 5% CO₂ at 37°C. Cells are exposed to 1.3% DMSO for 5 days in order to differentiate them into mature granulocytes and then are washed and resuspended in Dubelcco's phosphate-buffered saline at 10⁶ cells/mL. HL-60 (10⁶ cells/mL) are incubated for 15 min at 37°C in the presence or absence (vehicle only) of test compound. Cells are then stimulated by calcium ionophore A23187 (5 x 10⁻⁶M) for 15 min. LTB₄ secreted into the external medium is measured by EIA (enzymo immunoassay) using a commercially available LTB₄-EIA kit. Results are expressed as the percent inhibition of LTB₄ production as compared to controls.

For `Cc1nnc2n1-c1sc3c(c1C(c1ccccc1Cl)=NC2C)CCN(C(=O)Cc1ccc(OCc2ccc4ccccc4n2)cc1)C3` (stereo not drawn) [Compound 2, 6-(2-Chlorophenyl)-1,4-dimethyl-9-[4-(2-quinolylmethoxy)phenylacetyl]-7,8,9,10-tetrahydro-4H-pyrido[4',3': 4,5]thieno[3,2-f] [1,2,4]triazolo[4,3-a] [1,4]diazepine], the pIC50 in assay [1] is 7.80. Consider `Cc1nnc2n1-c1sc3c(c1C(c1ccccc1Cl)=NC2C)CCN(C(=O)c1cccc(OCc2ccc4ccccc4n2)c1)C3` (stereo not drawn) [Compound 1, 6-(2-Chlorophenyl)-1,4-dimethyl-9-[3-(2-quinolylmethoxy)benzoyl]-7,8,9,10-tetrahydro-4H-pyrido[4',3': 4,5]thieno[3,2-f] [1,2,4]triazolo[4,3-a] [1,4]diazepine], for which the pIC50 in assay [1] was 7.49. Further, the inhibition at 5 µM in assay [2] is 72%.
